Results published in article PMC3702004, “Comparison of Intake and Systemic Relative Effect Potencies of Dioxin-like Compounds in Female Mice after a Single Oral Dose” (Environmental Health Perspectives, 2013).
Read-outs that look alike come from different tables or passages of the source.

Assays:
[1] = Compound analysis: liver, adipose and plasma concentrations 3 days after a single oral dose; format: in vivo, female C57BL/6 mice; details: for Liver:adipose ratio: based on ng/g tissue, day 3; for concentration at 3 days: female, C57BL/6, mouse, in vivo, po
Protocol: (§1) Animals. Eight-week-old female C57BL/6 mice (Harlan laboratories, Venray, the Netherlands) were randomly assigned to treatment groups (six animals per group) and allowed to acclimate for 1.5 weeks. The animals were housed in groups in standard cages and conditions (23 ± 2°C, 50–60% relative humidity, 12-hr dark/light cycle) with free access to food and water. Mice received a single dose of test compound by oral gavage at a dosing volume of 10 mL/kg body weight (BW). Mice treated with corn oil vehicle (10 mL/kg BW) served as controls. For each congener, five different doses were administered, ranging from 0.5–100 μg/kg BW (TCDD) to 5,000–500,000 µg/kg BW (PCB-153). Detailed information on doses is provided in Supplemental Material, Table S1 (http://dx.doi.org/10.1289/ehp.1206336). On day 3 after dosing, animals were euthanized by CO2/O2 asphyxiation, and blood was immediately collected from the abdominal aorta. The liver, thymus, spleen, and adipose tissue were removed, weighed (liver, thymus, and spleen), snap frozen, and stored at –80°C. All animal treatments were performed with permission of the Animal Ethical Committee (DEC Utrecht) and performed according to the [Law on Animal Experiments (1977)]. Animals were treated humanely and with regard for alleviation of suffering.
(§2) Compound analysis. Adipose and liver tissues samples were homogenized in Na2SO4, followed by extraction and clean-up in one step, and then eluted with 200 mL 1:1 hexane:dichloromethane on an open column packed with 40% wt/wt H2SO4-impregnated silica and KOH-silica. Blood plasma samples were extracted on an open column using Chem-Elut (Agilent Technologies, Santa Clara, CA, USA) and then NaCl eluted with 75 mL 3:2 hexane:2-propanol. Clean-up was performed using a miniaturized silica column (as described above), and samples were eluted using 30 mL hexane. Because the samples typically contained high levels of the analytes, only a small fraction was evaporated and analyzed. Prior to evaporation, we spiked a fraction of the samples with ^13C-labeled standards. We checked potential loss of analytes during extraction and clean-up by reextracting the samples using the identical protocol used for the samples. […] Tetradecane was added prior to evaporation. Sample analysis followed the U.S. Environmental Protection Agency Method 1613 ([U.S. Environmental Protection Agency 1994]) using single ion monitoring mode on an Agilent 6809N gas chromatograph (Agilent Technologies) coupled with a Micromass Ultima Autospec Ultra high-resolution mass spectrometer (HRMS; Waters Corp., Milford, MA, USA). Compounds were separated on a 60 m × 0.25 mm DB5-MS column ([…]; J&W Scientific, Folsom, CA, USA). The HRMS was operated with electron impact ionization with electron energy of 35 eV and an ion source temperature of 250°C. To reduce the number of analyses, samples were pooled before clean-up. […] This method was used because full congener–specific separation could be achieved on the high-resolution GC–HRMS. For lipid determination, samples were evaporated to dryness after the extraction step, and the amount of lipids was determined gravimetrically. Concentrations were calculated based on lipid weight and wet weight. The analysis of samples for the PCB-118 5,000 μg/kg BW dose failed during the procedure; thus analysis for this group could not be completed.
Plasma and PBL isolation. Blood from two mice was pooled (total volume of approximately 1.4 mL); plasma and PBLs were then isolated using Ficoll Paque gradient (GE Healthcare Europe, Diegem, Belgium). Plasma samples were stored at –80°C until compound analysis. Isolated lymphocytes were lysed with RLT buffer (QIAGEN, Venlo, the Netherlands) as described in the QIAGEN RNAeasy kit protocol and stored at –80°C until use.

[2] = Body and organ weight, hepatic lipid content; format: in vivo, female C57BL/6 mice; details: day 3; for % lipid / g liver: pooled liver samples
Protocol: as §1, §2
Statistical analysis. Statistical significant differences of the means and variances were determined using one-way analysis of variance (ANOVA) followed by Tukey-Kramer multiple comparisons. Differences were considered statistically significant at p < 0.05. Statistical calculations were performed using GraphPad 6.01 (GraphPad Software Inc.).

[3] = oral dose 0.5 µg/kg bw, 3 days after single oral dose
[4] = oral dose 2.5 µg/kg bw, 3 days after single oral dose
[5] = oral dose 10 µg/kg bw, 3 days after single oral dose
[6] = oral dose 25 µg/kg bw, 3 days after single oral dose
[7] = oral dose 100 µg/kg bw, 3 days after single oral dose

Structure (SMILES): Clc1cc2c(cc1Cl)Oc1c(cc(Cl)c(Cl)c1Cl)O2 [PeCDD, 1,2,3,7,8-pentachlorodibenzodioxin]
- liver:adipose ratio (hepatic sequestration criterion 0.3) ([1]; 3 days after single oral dose, Table 1 doses): > 0.3
- Liver:adipose ratio ([1]; dose 0.5 μg/kg BW): 4.4±0.9
- Liver:adipose ratio ([1]; dose 2.5 μg/kg BW): 7.0±1.1
- Liver:adipose ratio ([1]; dose 10 μg/kg BW): 6.7±1.4
- concentration at 3 days ([1]; 0.5 µg/kg bw, oral dose 0.5 µg/kg bw, 3 days after single oral dose, read-out: Adipose concentration): 0.9 ± 0.2 ng/g
- concentration at 3 days ([1]; 0.5 µg/kg bw, oral dose 0.5 µg/kg bw, 3 days after single oral dose, read-out: Liver concentration): 4 ± 0.7 ng/g
- concentration at 3 days ([1]; 2.5 µg/kg bw, oral dose 2.5 µg/kg bw, 3 days after single oral dose, read-out: Adipose concentration): 3.8 ± 0.7 ng/g
- concentration at 3 days ([1]; 2.5 µg/kg bw, oral dose 2.5 µg/kg bw, 3 days after single oral dose, read-out: Liver concentration): 27 ± 6 ng/g
- concentration at 3 days ([1]; 10 µg/kg bw, oral dose 10 µg/kg bw, 3 days after single oral dose, read-out: Adipose concentration): 16 ± 5 ng/g
- concentration at 3 days ([1]; 10 µg/kg bw, oral dose 10 µg/kg bw, 3 days after single oral dose, read-out: Liver concentration): 103 ± 23 ng/g
- concentration at 3 days ([1]; 10 µg/kg bw, oral dose 10 µg/kg bw, 3 days after single oral dose, read-out: Plasma concentration): 0.032 ng/g
- concentration at 3 days ([1]; 25 µg/kg bw, oral dose 25 µg/kg bw, 3 days after single oral dose, read-out: Plasma concentration): 0.052 ng/g
- concentration at 3 days ([1]; 100 µg/kg bw, oral dose 100 µg/kg bw, 3 days after single oral dose, read-out: Plasma concentration): 0.298 ng/g
- Adipose % dose / g tissue [1, 3]: 9.3 % dose / g tissue
- Adipose concentration [1, 3]: 1.1 ± 0.2 ng/g lipid
- Liver % dose / g tissue [1, 3]: 40 % dose / g tissue
- Liver concentration [1, 3]: 85 ± 14 ng/g lipid
- Plasma % dose / g tissue [1, 3]: 0.037 % dose / g tissue
- Adipose % dose / g tissue [1, 4]: 7.7 % dose / g tissue
- Adipose concentration [1, 4]: 4.3 ± 0.8 ng/g lipid
- Liver % dose / g tissue [1, 4]: 54 % dose / g tissue
- Liver concentration [1, 4]: 446 ± 96 ng/g lipid
- Plasma % dose / g tissue [1, 4]: 0.024 % dose / g tissue
- Adipose % dose / g tissue [1, 5]: 8.0 % dose / g tissue
- Adipose concentration [1, 5]: 19 ± 6 ng/g lipid
- Liver % dose / g tissue [1, 5]: 51 % dose / g tissue
- Liver concentration [1, 5]: 1669 ± 378 ng/g lipid
- Plasma % dose / g tissue [1, 5]: 0.016 % dose / g tissue
- Plasma concentration [1, 5]: 19 ± 7 ng/g lipid
- Plasma % dose / g tissue [1, 6]: 0.010 % dose / g tissue
- Plasma concentration [1, 6]: 30 ± 2 ng/g lipid
- Plasma % dose / g tissue [1, 7]: 0.015 % dose / g tissue
- Plasma concentration [1, 7]: 157 ± 21 ng/g lipid
- Body weight ([2]; oral dose 0.5 µg/kg bw): 18.6 ± 1.3 gram
- Liver weight ([2]; oral dose 0.5 µg/kg bw): 4.56 ± 0.34 % of bw
- Spleen weight ([2]; oral dose 0.5 µg/kg bw): 0.30 ± 0.02 % of bw
- Thymus weight ([2]; oral dose 0.5 µg/kg bw): 0.21 ± 0.03 % of bw
- % lipid / g liver ([2]; oral dose 0.5 µg/kg bw): 4.7%
- Body weight ([2]; oral dose 2.5 µg/kg bw): 19.4 ± 1.1 gram
- Liver weight ([2]; oral dose 2.5 µg/kg bw): 5.02 ± 0.26 % of bw
- Spleen weight ([2]; oral dose 2.5 µg/kg bw): 0.31 ± 0.03 % of bw
- Thymus weight ([2]; oral dose 2.5 µg/kg bw): 0.29 ± 0.04 % of bw
- % lipid / g liver ([2]; oral dose 2.5 µg/kg bw): 6.0%
- Body weight ([2]; oral dose 10 µg/kg bw): 18.9 ± 1.2 gram
- Liver weight ([2]; oral dose 10 µg/kg bw): 5.32 ± 0.43 % of bw
- Spleen weight ([2]; oral dose 10 µg/kg bw): 0.32 ± 0.04 % of bw
- Thymus weight ([2]; oral dose 10 µg/kg bw): 0.23 ± 0.06 % of bw
- % lipid / g liver ([2]; oral dose 10 µg/kg bw): 6.2%
- Body weight ([2]; oral dose 25 µg/kg bw): 19.4 ± 1.5 gram
- Liver weight ([2]; oral dose 25 µg/kg bw): 5.26 ± 0.27 % of bw
- Spleen weight ([2]; oral dose 25 µg/kg bw): 0.32 ± 0.04 % of bw
- Thymus weight ([2]; oral dose 25 µg/kg bw): 0.26 ± 0.05 % of bw
- Body weight ([2]; oral dose 100 µg/kg bw): 18.8 ± 1.1 gram
- Liver weight ([2]; oral dose 100 µg/kg bw): 5.83 ± 0.50 % of bw
- Spleen weight ([2]; oral dose 100 µg/kg bw): 0.33 ± 0.04 % of bw
- Thymus weight ([2]; oral dose 100 µg/kg bw): 0.24 ± 0.05 % of bw
- Dose with significant increase in liver weight vs vehicle controls ([2]; single oral dose): ≥ 100 µg/kg BW
